In ChEMBL document CHEMBL3832086, “DailyMed|setid=1c5502c7-7731-4d3e-b4fe-7fd44dd5908b | UROXATRAL - alfuzosin hydrochloride tablet, extended release|Physicians Total Care, Inc”:

Key:
[1] = Evaluation of absolute bioavailability of Alfuzosin hydrochloride following oral administration of 10 mg Alfuzosin hydrochloride tablets under fed conditions.; assay type: ADME, organism-based; conditions: human, in vivo, at 10 mg, dietary status Fed, dosed compound id 46, dosed compound name ALFUZOSIN HYDROCHLORIDE, regimen Single dose, tissue Plasma
[2] = Evaluation of pharmacokinetic parameters for Alfuzosin hydrochloride following multiple oral or intravenous administration of Alfuzosin hydrochloride.; assay type: ADME, organism-based; parameters: dose 10 mg, route oral; conditions: human, in vivo, dosed compound id 46, dosed compound name ALFUZOSIN HYDROCHLORIDE, regimen Multiple dose, tissue Plasma

bioavailability [1]: 49%
Cmax ([2]; po, 10 mg, dietary status Fed): 13.6 ng/mL
AUC ([2]; po, 10 mg, dietary status Fed, read-out: AUC(0-24)): 194 ng·h/mL
Tmax ([2]; dietary status Fed, dose 10 mg, route oral): 8 h
half-life ([2]; dose 10 mg, route oral): 10 h
Vd ([2]; gender male, route iv): 3.2 L/kg
SMILES: COc1cc2nc(N(C)CCCNC(=O)C3CCCO3)nc(N)c2cc1OC.Cl (stereo unspecified) [ALFUZOSIN HYDROCHLORIDE]
